Results reported in paper PMC12077194, “Structural basis for spermidine recognition and modulation of Acinetobacter baumannii multidrug efflux regulator AmvR” (mBio, 2025).

Key:
AmvR = target: T1, AmvR (Acinetobacter baumannii, UniProt A0A7U3Y8S7); assay: Isothermal titration calorimetry of polyamines with apo AmvR wild-type; type: binding; settings: ITC, 20°C, read-out: equilibrium dissociation constant (Kd)
T1 sequence (A0A7U3Y8S7 4-192): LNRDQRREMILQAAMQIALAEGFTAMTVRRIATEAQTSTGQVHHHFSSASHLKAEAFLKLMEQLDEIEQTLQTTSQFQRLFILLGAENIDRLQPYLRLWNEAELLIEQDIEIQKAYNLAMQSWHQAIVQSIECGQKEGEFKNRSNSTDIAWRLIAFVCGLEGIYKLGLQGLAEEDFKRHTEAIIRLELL
Description: (§1) The AmvR^WT or mutant proteins were purified with affinity chromatography followed by size-exclusion chromatography and buffer-exchange with buffer D. The polyamines were also dissolved in Buffer D. The ITC experiments were performed at 20°C using a MicroCal PEAQ-ITC (Malvern Panalytical Ltd) using 20 injections of 2 µL or 25 injections of 1.6 µL. A solution of 100 µM AmvR wild-type or mutants was loaded into the cell, whereas a 1 mM solution of polyamines was loaded into the syringe. The measured heat changes of the binding reactions were integrated and analyzed using the standard “one set of sites” model implemented in the Origin software package (OriginLab) to determine the binding stoichiometry (N-value) and the equilibrium dissociation constant (Kd).

AmvR^E71A = target: T2, AmvR^E71A (Acinetobacter baumannii, UniProt A0A7U3Y8S7, E71A); assay: ITC of polyamines with AmvR^E71A mutant; type: binding
T2 sequence (A0A7U3Y8S7 4-192 E71A): T1 sequence (A0A7U3Y8S7 4-192)
Description: as §1

AmvR^L99Q = target: T3, AmvR^L99Q (Acinetobacter baumannii, UniProt A0A7U3Y8S7, L99Q); assay: ITC of spermidine with AmvR^L99Q mutant; type: binding
T3 sequence (A0A7U3Y8S7 4-192 L99Q): T1 sequence (A0A7U3Y8S7 4-192)
Description: as §1

AmvR^E164A = target: T4, AmvR^E164A (Acinetobacter baumannii, UniProt A0A7U3Y8S7, E164A); assay: ITC of spermidine with AmvR^E164A mutant; type: binding
T4 sequence (A0A7U3Y8S7 4-192 E164A): T1 sequence (A0A7U3Y8S7 4-192)
Description: as §1

AmvR W126E = target: T5, AmvR W126E (Acinetobacter baumannii, UniProt A0A7U3Y8S7, W126E); assay: ITC of spermidine with AmvR W126E mutant; type: binding
T5 sequence (A0A7U3Y8S7 4-192 W126E): T1 sequence (A0A7U3Y8S7 4-192)
Description: as §1

AmvR E65A = target: T6, AmvR E65A (Acinetobacter baumannii, UniProt A0A7U3Y8S7, E65A); assay: ITC of spermidine with AmvR E65A mutant; type: binding
T6 sequence (A0A7U3Y8S7 4-192 E65A): T1 sequence (A0A7U3Y8S7 4-192)
Description: as §1

AmvR W102A = target: T7, AmvR W102A (Acinetobacter baumannii, UniProt A0A7U3Y8S7, W102A); assay: ITC of spermidine with AmvR W102A mutant; type: binding
T7 sequence (A0A7U3Y8S7 4-192 W102A): T1 sequence (A0A7U3Y8S7 4-192)
Description: as §1

AmvR L99E = target: T8, AmvR L99E (Acinetobacter baumannii, UniProt A0A7U3Y8S7, L99E); assay: ITC of spermidine with AmvR L99E mutant; type: binding
T8 sequence (A0A7U3Y8S7 4-192 L99E): T1 sequence (A0A7U3Y8S7 4-192)
Description: as §1

AmvR E106A = target: T9, AmvR E106A (Acinetobacter baumannii, UniProt A0A7U3Y8S7, E106A); assay: ITC of spermidine with AmvR E106A mutant; type: binding
T9 sequence (A0A7U3Y8S7 4-192 E106A): T1 sequence (A0A7U3Y8S7 4-192)
Description: as §1

AmvR N103A = target: T10, AmvR N103A (Acinetobacter baumannii, UniProt A0A7U3Y8S7, N103A); assay: ITC of spermidine with AmvR N103A mutant; type: binding
T10 sequence (A0A7U3Y8S7 4-192 N103A): T1 sequence (A0A7U3Y8S7 4-192)
Description: as §1

AmvR L86A = target: T11, AmvR L86A (Acinetobacter baumannii, UniProt A0A7U3Y8S7, L86A); assay: ITC of spermidine with AmvR L86A mutant; type: binding
T11 sequence (A0A7U3Y8S7 4-192 L86A): T1 sequence (A0A7U3Y8S7 4-192)
Description: as §1

[1] = target: AmvR (a.a. 4-192) from Acinetobacter baumannii, wild type (Acinetobacter baumannii); assay: SEC; Superdex 75 Increase 10/300 GL, buffer F (200 mM NaCl, 20 mM Tris pH 8.0, 5 mM DTT), compared with gel filtration standards; AmvR^WT also with 2x and 10x spermidine

NCCCCN [putrescine]
Kd (AmvR): 9.52 µM

NCCCNCCCCNCCCN [spermine]
Kd (AmvR): 2.16 µM
Kd (AmvR^E71A): 88.5 µM

NCCCCCN [cadaverine]
Kd (AmvR): 5.88 µM
Kd (AmvR^E71A): 69.9 µM

NCCCCNCCCN [spermidine]
Kd (AmvR^L99Q): 0.75 µM
KD (AmvR^E164A): eliminated spermidine binding
Kd (AmvR W126E): 7.52 µM
Kd (AmvR E65A): 0.96 µM
Kd (AmvR): 0.73 µM
KD (AmvR W102A): completely eliminated spermidine binding
Kd (AmvR L99E): 5.71 µM
Kd (AmvR E106A): 7.09 µM
Kd (AmvR^E71A): 40.5 µM
Kd (AmvR N103A): 1.22 µM
Kd (AmvR L86A): 6.21 µM

AmvR (a.a. 4-192) from Acinetobacter baumannii, wild type (natural protein)
stoichiometry N [1]: 2
